Measured values as given in ChEMBL document CHEMBL1201862, “PubChem BioAssay data set” (2004).
Active and inactive are the calls of the source.

Tests used:
[1] = target: Voltage-dependent T-type calcium channel subunit alpha-1H (Homo sapiens, UniProt O95180); type: functional;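 note: channel activity triggered by adding a high calcium stimulation buffer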
[2] = target: T1, Carboxy-terminal domain RNA polymerase II polypeptide A small phosphatase 1 (Homo sapiens, UniProt Q9GZU7); experiment: inhibitors of CTDSP1, concentration-response testing, biochemical assay, absorbance-based, actives from ultra-high-throughput screening (AID 540297); type: functional
T1 sequence (Q9GZU7 whole entry): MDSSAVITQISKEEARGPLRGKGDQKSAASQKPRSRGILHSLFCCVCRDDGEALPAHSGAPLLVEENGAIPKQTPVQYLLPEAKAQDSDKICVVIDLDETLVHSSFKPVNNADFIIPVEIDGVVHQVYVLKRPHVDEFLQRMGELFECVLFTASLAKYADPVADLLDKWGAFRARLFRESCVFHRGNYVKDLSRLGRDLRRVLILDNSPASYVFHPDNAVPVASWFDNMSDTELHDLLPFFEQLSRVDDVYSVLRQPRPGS

Protein RecA = target: T2, Protein RecA (Mycobacterium tuberculosis, UniProt P9WHJ3); experiment: Fluorescence Cell-Free Homogeneous Dose Retest to Identify Inhibitors of RecA-Intein Splicing Activity. [Related pubchem assays (depositor defined):AID2097, AID2223, AID489010, AID492950]; type: functional
T2 sequence (P9WHJ3 whole entry): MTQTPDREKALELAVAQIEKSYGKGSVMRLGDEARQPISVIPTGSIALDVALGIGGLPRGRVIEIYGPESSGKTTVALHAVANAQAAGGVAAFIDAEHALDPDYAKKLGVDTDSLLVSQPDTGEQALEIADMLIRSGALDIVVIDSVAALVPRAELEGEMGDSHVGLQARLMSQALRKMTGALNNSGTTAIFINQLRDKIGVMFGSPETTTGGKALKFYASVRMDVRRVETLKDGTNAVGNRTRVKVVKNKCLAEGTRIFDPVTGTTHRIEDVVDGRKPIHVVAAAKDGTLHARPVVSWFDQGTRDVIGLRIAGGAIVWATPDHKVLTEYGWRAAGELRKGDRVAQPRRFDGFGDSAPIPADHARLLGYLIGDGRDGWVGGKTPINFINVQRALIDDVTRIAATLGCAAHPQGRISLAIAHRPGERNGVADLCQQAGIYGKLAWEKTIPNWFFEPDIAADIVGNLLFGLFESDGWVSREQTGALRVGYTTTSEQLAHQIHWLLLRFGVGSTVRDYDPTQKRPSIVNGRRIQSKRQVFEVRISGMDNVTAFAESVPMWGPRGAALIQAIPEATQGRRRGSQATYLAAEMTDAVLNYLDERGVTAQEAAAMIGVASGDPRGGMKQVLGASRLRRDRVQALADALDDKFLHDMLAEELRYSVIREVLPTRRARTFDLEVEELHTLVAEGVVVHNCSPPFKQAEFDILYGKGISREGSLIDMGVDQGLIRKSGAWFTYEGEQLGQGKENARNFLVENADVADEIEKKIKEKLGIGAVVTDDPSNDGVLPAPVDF

[3] = microbe, parasite or virus in culture; type: functional; conditions: Mycobacterium tuberculosis
[4] = target: T3, Replicative DNA helicase DnaB (Mycobacterium tuberculosis, UniProt P9WMR3); experiment: DnaB intein splicing inhibitors, dose response, biochemical, cell-free fluorescence (AID 449749); type: functional
T3 sequence (P9WMR3 whole entry): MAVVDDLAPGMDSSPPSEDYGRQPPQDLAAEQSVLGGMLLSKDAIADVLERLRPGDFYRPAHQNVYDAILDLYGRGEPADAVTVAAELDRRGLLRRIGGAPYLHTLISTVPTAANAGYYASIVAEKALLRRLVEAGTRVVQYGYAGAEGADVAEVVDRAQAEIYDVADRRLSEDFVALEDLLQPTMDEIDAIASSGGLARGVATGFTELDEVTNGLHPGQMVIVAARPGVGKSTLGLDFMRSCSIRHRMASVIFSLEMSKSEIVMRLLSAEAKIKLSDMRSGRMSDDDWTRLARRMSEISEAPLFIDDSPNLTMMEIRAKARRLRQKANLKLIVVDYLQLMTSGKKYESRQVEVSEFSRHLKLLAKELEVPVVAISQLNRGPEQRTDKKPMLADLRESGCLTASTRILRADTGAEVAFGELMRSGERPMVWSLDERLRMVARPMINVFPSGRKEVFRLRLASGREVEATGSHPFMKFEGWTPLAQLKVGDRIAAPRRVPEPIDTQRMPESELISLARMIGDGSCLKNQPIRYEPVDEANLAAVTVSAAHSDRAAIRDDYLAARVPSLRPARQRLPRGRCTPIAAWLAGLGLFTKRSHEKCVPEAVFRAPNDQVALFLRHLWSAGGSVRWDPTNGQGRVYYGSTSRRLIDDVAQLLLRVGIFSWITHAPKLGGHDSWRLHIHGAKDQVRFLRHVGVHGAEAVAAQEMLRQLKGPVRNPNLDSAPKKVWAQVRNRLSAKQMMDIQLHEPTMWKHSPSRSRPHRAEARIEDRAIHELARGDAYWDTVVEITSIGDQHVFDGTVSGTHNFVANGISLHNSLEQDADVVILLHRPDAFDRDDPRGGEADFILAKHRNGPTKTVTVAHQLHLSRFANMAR

Streptococcus = experiment: Group A Streptococcus viability loss, dose response, counter-screen for streptokinase expression inhibitor project, luminescence, BacTiterGlo (AID 1915); type: functional, organism-based;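 note: potency for reduction of bacterial viability or growth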
[5] = system: Streptococcus sp. 'group A'; experiment: growth inhibition of control SK(-) GAS strain, dose response, counter-screen for streptokinase expression inhibitor project, luminescence, kanamycin, BacTiterGlo, confirmation (AID 1900); type: functional, organism-based
Streptokinase A = target: T4, Streptokinase A (Streptococcus pyogenes serotype M1, UniProt P10520); experiment: S. pyogenes streptokinase expression inhibitors, potency, dose response, plasminogen activation absorbance, OD405 (AID 1914); type: functional, Streptococcus pyogenes M1 GAS;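 note: secreted streptokinase activity via plasminogen activation per viability signal from cell pellet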
T4 sequence (P10520 whole entry): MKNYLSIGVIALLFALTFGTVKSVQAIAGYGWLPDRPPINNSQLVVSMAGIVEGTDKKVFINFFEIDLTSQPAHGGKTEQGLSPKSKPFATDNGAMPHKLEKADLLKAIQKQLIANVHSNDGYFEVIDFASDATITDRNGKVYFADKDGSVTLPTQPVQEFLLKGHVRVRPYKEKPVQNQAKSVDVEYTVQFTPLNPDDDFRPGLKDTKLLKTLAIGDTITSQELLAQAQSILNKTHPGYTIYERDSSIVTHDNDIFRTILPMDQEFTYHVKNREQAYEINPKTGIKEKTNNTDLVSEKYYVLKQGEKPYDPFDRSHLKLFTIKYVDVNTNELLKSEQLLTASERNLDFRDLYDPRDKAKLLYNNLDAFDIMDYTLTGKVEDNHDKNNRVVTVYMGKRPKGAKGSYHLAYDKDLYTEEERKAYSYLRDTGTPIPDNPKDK

[6] = target: T5, Ubiquitin-conjugating enzyme E2 N (Homo sapiens, UniProt P61088); type: functional;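 note: Dose-response confirmation in a TR-FRET assay detecting UBC13-driven polyubiquitin chain formation, inhibition measured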
T5 sequence (P61088 whole entry): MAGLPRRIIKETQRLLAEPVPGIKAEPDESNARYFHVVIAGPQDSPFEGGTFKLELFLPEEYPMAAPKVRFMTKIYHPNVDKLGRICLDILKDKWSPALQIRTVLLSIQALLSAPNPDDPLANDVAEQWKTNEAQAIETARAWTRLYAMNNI

SUMO-activating enzyme = SUMO-activating enzyme (Homo sapiens, UniProt Q9UBT2); experiment: SUMOylation inhibitor hit validation, confirmation, SUMOylation inhibitor project, biochemical, AlphaScreen (AID 2018); type: functional
Chain of SUMO-activating enzyme (Q9UBE0 whole entry): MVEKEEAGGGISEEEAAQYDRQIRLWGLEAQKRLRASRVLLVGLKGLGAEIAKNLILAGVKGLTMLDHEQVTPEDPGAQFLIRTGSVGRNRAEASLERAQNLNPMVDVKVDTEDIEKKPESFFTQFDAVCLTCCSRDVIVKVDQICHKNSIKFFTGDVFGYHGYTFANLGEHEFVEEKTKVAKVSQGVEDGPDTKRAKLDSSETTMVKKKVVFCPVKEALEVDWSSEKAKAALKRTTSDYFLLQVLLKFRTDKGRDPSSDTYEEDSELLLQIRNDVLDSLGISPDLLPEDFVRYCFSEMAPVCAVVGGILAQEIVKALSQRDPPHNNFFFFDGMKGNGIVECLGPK
Chain of SUMO-activating enzyme (Q9UBT2 whole entry): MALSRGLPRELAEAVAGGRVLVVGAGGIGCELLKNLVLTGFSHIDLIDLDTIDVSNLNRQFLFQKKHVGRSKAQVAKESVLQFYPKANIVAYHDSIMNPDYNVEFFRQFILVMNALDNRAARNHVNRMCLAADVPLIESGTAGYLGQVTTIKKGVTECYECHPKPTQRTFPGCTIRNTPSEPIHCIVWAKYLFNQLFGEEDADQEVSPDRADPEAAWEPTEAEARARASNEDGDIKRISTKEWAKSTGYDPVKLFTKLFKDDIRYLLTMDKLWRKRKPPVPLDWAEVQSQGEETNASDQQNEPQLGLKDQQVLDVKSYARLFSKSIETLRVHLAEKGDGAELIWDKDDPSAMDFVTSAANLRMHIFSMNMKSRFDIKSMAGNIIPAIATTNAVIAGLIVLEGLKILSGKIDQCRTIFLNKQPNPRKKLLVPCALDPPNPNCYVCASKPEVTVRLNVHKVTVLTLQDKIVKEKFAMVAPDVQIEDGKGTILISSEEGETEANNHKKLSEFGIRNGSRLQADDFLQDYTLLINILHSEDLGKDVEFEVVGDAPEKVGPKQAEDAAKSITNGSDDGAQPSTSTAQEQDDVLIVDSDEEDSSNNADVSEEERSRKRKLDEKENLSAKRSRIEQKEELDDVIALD

[7] = cytotoxicity toward DRD oncogenic fibroblasts, dose response, cell-based, non-viral oncogenic, luminescence (AID 1934); type: functional; conditions: Homo sapiens
BJ [8] = experiment: cells; type: functional, cell-based; conditions: Homo sapiens
BJ [9] = experiment: cytotoxicity toward BJ-TERT fibroblasts, dose response, cell-based, RAS-independent, luminescence (AID 1933); type: functional; conditions: Homo sapiens
BJ [10] = experiment: cytotoxicity toward BJ-TERT-LT-ST fibroblasts, dose response, cell-based, RAS-independent, luminescence (AID 1935); type: functional; conditions: Homo sapiens;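 note: BJ fibroblasts immortalized with TERT plus LT and ST oncogenes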
[11] = target: T6, Calpain-2 catalytic subunit (Sus scrofa, UniProt P43367); experiment: pig calpain II inhibitor potency, dose response, biochemical, fluorogenic peptide substrate (AID 1420); type: functional
T6 sequence (P43367 whole entry): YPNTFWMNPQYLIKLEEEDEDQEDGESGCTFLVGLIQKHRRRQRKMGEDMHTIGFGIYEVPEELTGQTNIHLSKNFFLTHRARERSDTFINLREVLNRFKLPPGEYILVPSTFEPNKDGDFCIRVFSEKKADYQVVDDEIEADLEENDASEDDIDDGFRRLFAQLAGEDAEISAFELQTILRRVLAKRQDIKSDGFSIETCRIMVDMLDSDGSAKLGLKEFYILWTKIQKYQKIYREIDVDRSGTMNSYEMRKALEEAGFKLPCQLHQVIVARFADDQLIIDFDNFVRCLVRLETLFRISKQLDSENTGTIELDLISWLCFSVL

Chain of Voltage-dependent T-type calcium channel subunit alpha-1H (O95180 whole entry, the tested form may be a part): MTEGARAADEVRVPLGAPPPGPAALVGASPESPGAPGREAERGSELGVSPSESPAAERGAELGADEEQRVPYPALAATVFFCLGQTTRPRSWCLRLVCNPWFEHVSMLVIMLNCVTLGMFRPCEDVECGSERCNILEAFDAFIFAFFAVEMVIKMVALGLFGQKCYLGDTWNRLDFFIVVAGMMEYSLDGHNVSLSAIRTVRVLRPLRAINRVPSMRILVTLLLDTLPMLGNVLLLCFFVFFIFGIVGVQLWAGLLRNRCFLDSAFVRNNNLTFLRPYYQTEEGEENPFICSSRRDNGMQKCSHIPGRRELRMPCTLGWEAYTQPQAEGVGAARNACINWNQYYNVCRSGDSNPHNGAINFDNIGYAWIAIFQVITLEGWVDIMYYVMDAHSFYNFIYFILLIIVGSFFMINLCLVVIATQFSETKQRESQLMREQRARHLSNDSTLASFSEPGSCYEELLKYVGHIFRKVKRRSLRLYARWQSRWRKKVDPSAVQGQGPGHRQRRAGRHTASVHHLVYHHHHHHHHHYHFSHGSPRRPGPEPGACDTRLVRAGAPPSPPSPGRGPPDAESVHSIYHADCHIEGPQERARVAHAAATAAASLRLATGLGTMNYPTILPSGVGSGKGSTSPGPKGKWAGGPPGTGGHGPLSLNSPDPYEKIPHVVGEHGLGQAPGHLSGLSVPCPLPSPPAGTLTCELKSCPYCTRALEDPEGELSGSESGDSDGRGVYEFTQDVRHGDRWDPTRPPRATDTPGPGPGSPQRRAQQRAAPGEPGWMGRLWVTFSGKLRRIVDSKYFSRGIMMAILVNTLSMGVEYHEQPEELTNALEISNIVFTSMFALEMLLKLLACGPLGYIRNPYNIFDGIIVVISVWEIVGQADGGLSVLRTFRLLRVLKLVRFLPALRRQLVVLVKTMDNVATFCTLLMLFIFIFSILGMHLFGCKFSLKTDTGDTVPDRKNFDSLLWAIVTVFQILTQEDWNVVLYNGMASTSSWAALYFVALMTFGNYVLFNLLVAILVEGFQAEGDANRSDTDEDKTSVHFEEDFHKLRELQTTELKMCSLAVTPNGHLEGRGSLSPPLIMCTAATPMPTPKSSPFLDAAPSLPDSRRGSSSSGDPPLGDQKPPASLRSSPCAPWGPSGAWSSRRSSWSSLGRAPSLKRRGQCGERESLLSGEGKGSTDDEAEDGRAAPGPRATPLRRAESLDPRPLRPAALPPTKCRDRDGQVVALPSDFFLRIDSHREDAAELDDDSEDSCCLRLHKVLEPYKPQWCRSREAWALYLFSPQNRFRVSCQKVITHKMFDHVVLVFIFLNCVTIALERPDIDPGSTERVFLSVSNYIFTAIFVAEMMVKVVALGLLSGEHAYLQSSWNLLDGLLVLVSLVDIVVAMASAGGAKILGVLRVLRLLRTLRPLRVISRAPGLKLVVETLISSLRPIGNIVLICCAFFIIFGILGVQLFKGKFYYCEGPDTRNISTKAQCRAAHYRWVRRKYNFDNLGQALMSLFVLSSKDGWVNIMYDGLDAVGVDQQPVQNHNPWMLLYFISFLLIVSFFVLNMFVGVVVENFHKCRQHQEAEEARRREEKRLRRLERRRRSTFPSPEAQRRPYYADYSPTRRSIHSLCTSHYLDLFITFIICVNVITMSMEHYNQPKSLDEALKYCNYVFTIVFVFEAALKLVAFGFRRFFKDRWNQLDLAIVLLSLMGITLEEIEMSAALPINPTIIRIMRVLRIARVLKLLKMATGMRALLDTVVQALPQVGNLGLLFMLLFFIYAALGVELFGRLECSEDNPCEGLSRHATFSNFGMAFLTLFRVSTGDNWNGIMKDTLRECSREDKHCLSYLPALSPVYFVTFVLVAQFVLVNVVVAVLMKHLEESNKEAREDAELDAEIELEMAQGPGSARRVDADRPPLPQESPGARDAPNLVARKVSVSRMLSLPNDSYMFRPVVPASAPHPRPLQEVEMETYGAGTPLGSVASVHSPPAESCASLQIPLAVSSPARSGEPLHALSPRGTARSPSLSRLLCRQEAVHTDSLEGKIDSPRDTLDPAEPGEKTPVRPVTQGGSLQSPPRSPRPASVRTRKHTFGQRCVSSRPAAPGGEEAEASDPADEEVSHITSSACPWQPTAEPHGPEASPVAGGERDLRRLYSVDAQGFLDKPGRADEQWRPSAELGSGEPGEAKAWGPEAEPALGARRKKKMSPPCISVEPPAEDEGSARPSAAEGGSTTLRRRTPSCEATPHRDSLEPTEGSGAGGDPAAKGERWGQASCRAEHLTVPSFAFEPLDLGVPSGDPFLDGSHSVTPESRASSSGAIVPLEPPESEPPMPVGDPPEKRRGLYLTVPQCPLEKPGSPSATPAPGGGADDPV

In the case of `CCc1ccc(S(=O)(=O)NCc2csc(-c3ccccc3)n2)s1`, the EC50 [1] is reported as 4.61 µM (active).
For `O=C(O)CNC(=O)CC1SC(NNC2=NC(=O)CS2)=NC1=O` (stereo not given), the IC50 [2] was 5.27 µM (active).
In the case of `Cn1c2ccccc2c2cc(C(=O)NNC(=O)CCl)sc21`, the EC50 (Protein RecA) is reported as 15.7 µM (active), the CC50 [3] is reported as 21.3 µM (active) and the AC50 [4] is reported as > 380 µM (inactive).
In the case of `COc1cc2ccccc2cc1C(=O)NC(=S)Nc1ccc(C(=O)O)cc1`, the EC50 (Streptococcus) is reported as 60.9 µM (active), the EC50 [5] is reported as 8.15 µM (active) and the IC50 [2] is reported as 4.12 µM (active). The EC50 (Streptokinase A) was > 150 µM (not active).
With `CC(=O)N1c2ccccc2N(Cc2ccc(C)cc2C)C(=O)C1(C)C` the EC50 [1] was 4.43 µM (active).
For `CC[C@@H](C)[C@H](CN[C@H](CNC)C(C)C)NC[C@@H](C)c1ccc(CC(C)C)cc1`, the IC50 [6] was > 20 µM (inactive) and the CC50 [3] was 10 µM (active).
In the case of `Cc1cccc(C)c1OCC(=O)N=Nc1c(O)[nH]c2ccc(Br)cc12`, the IC50 (SUMO-activating enzyme) is reported as 10.6 µM (active).
For `COc1ccccc1N1CCN(C(=O)CCC(=O)Nc2nnc(CC(C)C)s2)CC1`, the EC50 [7] was > 150 µM (inconclusive), the EC50 (BJ [8]) was > 150 µM (not active) and the EC50 (BJ [9]) was > 150 µM (not active). For the same molecule, the EC50 (BJ [10]) was > 150 µM (not active).
With `Cc1ccsc1S(=O)(=O)N1CCCC(CCC(=O)NCc2ccccc2F)C1` (stereo not given) the IC50 [11] was > 50 µM (not active).
With `COc1cccc(-c2nnc(SCC(=O)NCc3ccc4c(c3)OCO4)n2Cc2ccco2)c1` the EC50 [1] was 8.92 µM (active).
With `CC(=O)c1sc(NC(=O)COc2ccc(C(C)C)c(C)c2)nc1C` the IC50 [11] was 9.95 µM (not active).
